Where “and” joins values, the source holds several entries; their conditions need not be identical. Equal values may be shown once.
What was measured:
Caco-2 cells = assay: Cytotoxicity assay (CellTiter Glo) on colon epithelial carcinoma cells; settings: for TSI Caco-2: ratio CC50 FB789 / CC50 Caco-2
[1] = as above; settings: human, Caco-2
Huh7 cells = assay: Cytotoxicity assay (CellTiter Glo) on hepatocarcinoma cells; type: cell-based; settings: for TSI Huh7: ratio CC50 FB789 / CC50 Huh7
Procedure: (§1) Cell-based assays were carried out on the normal human fibroblast FB789 cell line (kindly provided by Elena Dell’Ambra from IRCCS Istituto Dermopatico dell’Immacolata, Rome), on the Huh7 hepatocarcinoma cell line (kindly provided by Istituto Toscano Tumori, Core Research Laboratory, Siena, Italy), on the Caco-2 adenocarcinoma colorectal cell line (ATCC catalog. n. HTB-37), on the suspension H9 cell line (repository code ARP0001, NIBSC Centre for AIDS reagents) and on the adherent TZM-bl cell line (repository code ARP5011, NIBSC Centre for AIDS reagents).
(§2) High glucose Dulbecco’s Modified Eagle Medium with sodium pyruvate and L-glutamine (DMEM; Euroclone) was used to grow Huh-7 and TZM-bl. Minimum Essential Eagle Medium (EMEM; Euroclone) was used to propagate Caco-2. DMEM and EMEM were supplemented with 10% fetal bovine serum (FBS; Euroclone) and 1% penicillin/streptomycin (Pen/Strep, Euroclone). The growth medium with a lower concentration of FBS (1%) was used for viral propagation, cytotoxic and antiviral experiments in adherent cell lines. […] All cell lines were grown at 37 °C in a 5% CO2 atmosphere in a humidified incubator.
(§3) The cytotoxicity of all investigated compounds was assayed in all cells lines as previously described. Briefly, confluent cells were treated with decreasing compound concentrations for 48h. The final DMSO concentration used was never greater than 0.5% v/v. Each experiment was performed in duplicate and repeated in two independent experiments. Cell viability was calculated using the CellTiter Glo 2.0 kit (Promega, Madison, WI, USA) and luminescence values signal obtained from cells treated with serial dilution of the compounds were measured through the GloMax® Discover Multi mode Microplate Reader (Promega) and elaborated with GraphPad PRISM software version 9.0 (La Jolla, San Diego, CA, USA). […] A non-toxic dose of each compound was used as the starting concentration in the antiviral activity assay.

[2] = as above; type: cell-based; settings: human, Huh7 hepatocarcinoma cells, Huh7 hepatocarcinoma
Procedure: as §1, §2, §3

[3] = Cytotoxicity assay (CellTiter Glo) on normal fibroblasts; type: cell-based, human; settings: human, FB789 normal fibroblast cells
Procedure: as §1
The FB789 was cultured in Dulbecco’s Modified Eagle Medium (DMEM) and Ham’s F10 in a ratio of 50%, supplemented with 10% FBS, 2 mM L-glutamine, and 10,000 unit/mL penicillin/streptomycin.
as §3

H9 cells = assay: Cytotoxicity assay (CellTiter Glo) on lymphoma cells; settings: ratio CC50 FB789 / CC50 H9
[4] = as above; settings: human
Plasma stability assay = type: in vitro ADME; settings: human plasma, 24 h, 37 °C; % of Time 0
Procedure: A DMSO solution of each compound was incubated at a final concentration of 100 µM at 37 °C under shaking with HEPES buffer (25 mM, 140 mM NaCl, pH 7.4) and human plasma. At time 0 and after 24 h, samples were collected from the reaction mixtures and treated with cold ACN. After centrifugation at 5000 rpm for 10 min, the supernatant was collected, and the amount of unmodified compound was determined using the HLPC-UV/MS method described above. Modified compounds were calculated using time zero as 100% of the unmodified compound.

[5] = Kinetic aqueous solubility; type: physicochemical; settings: Milli-Q water, 25 °C, water, kinetic from dmso stock; Mill-Q H2O, 3 h, RT; LOD 0.1 µg/mL
Procedure: For the quantitative analysis, a UV/LC-MS system was used. LC analysis was performed through an Agilent 1260 Infinity HPLC-DAD system (Agilent Technologies, Palo Alto, CA, USA), which constituted of a vacuum solvent degassing unit, a binary high-pressure gradient pump, and a UV detector, that was connected to an Agilent MSD 6130 system (Agilent Technologies, Palo Alto, CA, USA). The Agilent 1260 series mass spectra detection (MSD) single-quadrupole instrument was equipped with the orthogonal spray API-ES (Agilent Technologies, Palo Alto, CA, USA). Nitrogen was used as a nebulizing and drying gas. Chromatographic separation was performed using a Phenomenex Kinetex EVO C18-100 Å (150 × 4.6 mm, 5 μm particle size) at 25 °C and a gradient elution with a binary solution; eluent A was H2O, while eluent B consisted of ACN (both eluents were acidified with FA 0.1% v/v). […] UV detection was monitored at 254 nm. Spectra were acquired over the scan range m/z 100–1500 in positive mode.
DMSO-stock compounds’ solutions were diluted with Mill-Q H2O to a final concentration of 200 μM. The percentage of DMSO never exceeded 2% v/v. Samples were incubated under gentle shaking at 25 °C (RT) conditions for 3 h. The suspensions were filtered using a 0.45 µm nylon filter (Acrodisc, VWR, Radnor, PE, USA), and the amount of solubilized compound was determined with the HPLC-UV-MS method reported above. The quantification of the solubilized compound was made with the appropriate calibration curve realized with stock solutions in DMSO (0.1–100 µg/mL). The limit of detection (LOD) was quantified at 0.1 µg/mL.

[6] = Parallel artificial membrane permeability assay (PAMPA); type: in vitro ADME; settings: GI, pH 7.4, 5 h, RT
Procedure: To evaluate the apparent permeability of tested compounds, a DMSO stock solution [1 mM] of each derivative was prepared and then diluted 1:1 v/v with phosphate buffer (PBS 25 mM, pH 7.4) in order to make the donor solutions. According to the protocol already published, the gastrointestinal (GI) phospholipidic bilayer was mimed through adding a 1% w/v dodecane solution of phosphatidylcholine (PC). The sandwich plates were assembled and incubated for 5 h at RT. At the end time point, the amount of compound passed through the phospholipid bilayer was measured using HPLC-UV/MS. Finally, apparent permeability (Papp) and membrane retention (MR%) were calculated as previously described.

[7] = Metabolic stability assay with human liver microsomes; type: in vitro ADME; settings: 1 h, 37 °C, 50 µM
Procedure: A DMSO solution of selected compounds was incubated in the presence of phosphate buffer (25 mM, pH 7.4), human liver microsomal protein (200 µg/mL), and an NADPH regenerating system in MgCl2 (48 mM) at a final concentration of 50 µM. The metabolic reactions were conducted for 1 h under shaking at 37 °C and then stopped by adding cold acetonitrile (ACN). Centrifuging the mixtures at 5000 rpm, the supernatant was separated, dried under nitrogen flow, and finally suspended in methanol (MeOH). The amount of the parent drug and the metabolites were determined as previously described.

[8] = triazines 1-9, read-out 48 h, Cell-Titer Glo
[9] = pyrimidines and pyridines, read out at 48 h, mean ± SD
[10] = 21a vs triazine 4, 33b vs triazine 6

SMILES	TSI Caco-2 (Caco-2 cells; triazines 1-9)	CC50 at 48 h [1] [µM]	TSI Huh7 (Huh7 cells; triazines 1-9)	CC50 at 48 h ([2]; triazines 1-9, read-out 48 h) [µM]	CC50 at 48 h [3, 8] [µM]	TSI H9 (H9 cells; triazines 1-9)	CC50 at 48 h [4] [µM]	CC50 at 48 h [2, 9] [µM]	CC50 at 48 h [3, 9] [µM]	TSI Caco-2 (Caco-2 cells; pyrimidines and pyridines)	Plasmatic Stability (Plasma stability assay) [%]	TSI Huh7 (Huh7 cells; pyrimidines and pyridines)	solubility kinetic at 3 h [5] [µg/mL]	MR (membrane retention) [6]	Papp at 5 h, 0.5 mM [6] [×10⁻⁶ cm/s]	TSI H9 (H9 cells; pyrimidines and pyridines)	Metabolic Stability [7] [%]	fold higher TSI than reference triazine, Caco-2 (Caco-2 cells; [10]) [fold]	fold higher TSI than reference triazine, Huh7 (Huh7 cells; [10]) [fold]
CC(=O)Nc1ccc(/C=N/Nc2nc(N3CCOCC3)nc(N3CCOCC3)n2)cc1 [Compound 2]	<0.7	> 200	<0.7	> 200	134 ± 11	<1.3	> 100	–	–	–	–	–	–	–	–	–	–	–	–
Cc1cccc(/C=N/Nc2nc(N3CCOCC3)nc(N3CCOCC3)n2)c1 [Compound 3]	1.4	184 ± 11	5.6	45 ± 10	250 ± 10	3.4	74 ± 6.2	–	–	–	–	–	–	–	–	–	–	–	–
CC(=O)Nc1ccc(/C=N/Nc2nc(Nc3ccc(F)cc3)nc(N3CCOCC3)n2)cc1 [Compound 5]	0.4	70 ± 6	0.6	45 ± 6	27 ± 3	0.9	30 ± 5	–	–	–	–	–	–	–	–	–	–	–	–
Cc1cccc(/C=N/Nc2nc(Nc3ccc(F)cc3)nc(N3CCOCC3)n2)c1 [Compound 6]	4.5	22 ± 2	2.1	47 ± 5	100 ± 8	<1.0	> 100	–	–	–	–	–	–	–	–	–	–	–	–
Oc1ccccc1/C=N/Nc1nc(Nc2ccc(F)cc2)nc(Nc2ccc(F)cc2)n1 [Compound 7]	8.8	0.8 ± 0.1	3.5	2 ± 0.4	7 ± 2	3.5	2 ± 1	–	–	–	–	–	–	–	–	–	–	–	–
CC(=O)Nc1ccc(/C=N/Nc2nc(Nc3ccc(F)cc3)nc(Nc3ccc(F)cc3)n2)cc1 [Compound 8]	<0.3	> 200	<0.3	> 200	57 ± 7	<0.6	> 100	–	–	–	–	–	–	–	–	–	–	–	–
Cc1cccc(/C=N/Nc2nc(Nc3ccc(F)cc3)nc(Nc3ccc(F)cc3)n2)c1 [Compound 9]	–	200	–	> 200	50 ± 5	–	> 100	–	–	–	–	–	–	–	–	–	–	–	–
Oc1ccccc1/C=N/Nc1cc(N2CCOCC2)nc(N2CCOCC2)n1 [Compound 14a]	–	84 ± 7	–	–	–	–	> 100	82 ± 6	30 ± 6	–	–	–	–	–	–	–	–	–	–
Cc1cccc(/C=N/Nc2cc(N3CCOCC3)nc(N3CCOCC3)n2)c1 [Compound 14b]	–	11 ± 2	–	–	–	–	14 ± 7	8 ± 4	9 ± 1	0.8	–	–	–	–	–	–	–	–	–
Oc1ccccc1/C=N/Nc1cc(Nc2ccc(F)cc2)nc(Nc2ccc(F)cc2)n1 [Compound 19a]	–	2 ± 1	–	–	–	–	31 ± 8	1 ± 0.3	14 ± 3	7.0	86.64 ± 0.17	14.0	< 0.1	20.99% and 20.91 ± 1.75%	3.59 ± 0.21	0.5	>99.9	–	–
Cc1cccc(/C=N/Nc2cc(Nc3ccc(F)cc3)nc(Nc3ccc(F)cc3)n2)c1 [Compound 19b]	–	4 ± 1	–	–	–	–	48 ± 3.5	6 ± 1	61 ± 9	15.3	>99.9	10.2	< 0.1	27.42% and 27.42 ± 1.22%	5.64 ± 0.59	1.3	98.31 ± 0.11	–	–
Oc1ccccc1/C=N/Nc1cc(Nc2ccc(F)cc2)nc(N2CCOCC2)n1 [Compound 21a]	–	2 ± 0.4	–	–	–	–	11 ± 2	3 ± 1	10 ± 5	5.0	96.93 ± 2.73	3.3	< 0.1	26.03 ± 6.17%	4.8 ± 0.73	no selectivity	>99.9	1.4	2.8
Cc1cccc(/C=N/Nc2cc(Nc3ccc(F)cc3)nc(N3CCOCC3)n2)c1 [Compound 21b]	–	113 ± 4	–	–	–	–	> 100	67 ± 23	95 ± 1	0.8	–	–	–	–	–	<1.0	–	–	–
Oc1ccccc1/C=N/Nc1cc(N2CCOCC2)nc(N2CCOCC2)c1 [Compound 27a]	–	29 ± 2	–	–	–	–	76 ± 4	44 ± 5	11 ± 3	–	–	–	–	–	–	–	–	–	–
Cc1cccc(/C=N/Nc2cc(N3CCOCC3)nc(N3CCOCC3)c2)c1 [Compound 27b]	–	30 ± 2	–	–	–	–	50 ± 4	39 ± 3	81 ± 2	2.7	–	–	–	–	–	–	–	–	–
Oc1ccccc1/C=N/Nc1cc(Nc2ccc(F)cc2)nc(Nc2ccc(F)cc2)c1 [Compound 33a]	–	12 ± 4	–	–	–	–	43 ± 9	18 ± 5	0.3 ± 0.3	0.03	–	0.02	–	–	–	0.01	–	–	–
Oc1ccccc1/C=N/Nc1cc(Nc2ccc(F)cc2)nc(N2CCOCC2)c1 [Compound 38a]	–	19 ± 0.1	–	–	–	–	37 ± 2	24 ± 14	3 ± 1	0.2	–	0.1	–	–	–	0.1	–	–	–
